Laboratory results: patent US20260014278A1, “HYBRID PEPTIDE DENDRIMER SYSTEMS AND EXTRAHEPATIC DELIVERY” (NUNTIUS THERAPEUTICS LIMITED, priority 2022, published 2026)

Experiments:
[1] = Dynamic light scattering: hydrodynamic size and polydispersity index (PDI) of nanoparticles; type: physicochemical; conditions: peptide dendrimer, lipid and mRNA complexes; N:P 8:1, DOTMA/DOPE w/w 10:1 to mRNA
Method: (§1) The hydrodynamic size was measured using the dynamic light scattering (DLS) technique. DLS is a very sensitive, non-invasive method to measure size and size distribution of nanoparticles in a liquid. […] Analysing these intensity fluctuations allows us to calculate the velocity of the Brownian motion. The size of the nanoparticles can be determined by using the Stokes-Einstein relationship. With the latest technology, it can measure nanoparticles smaller than 1 nm.
PDI is used to estimate the average uniformity of a particle solution, The method of cumulants is a standard technique for analysing DLS data on sample polydispersity. PDI is a number calculated from a 2 parameter fit to the correlation data (the cumulants analysis). The cumulants analysis is used to evaluate the autocorrelation function generated by a DLS experiment. The calculation is defined in ISO 13321 and ISO 22412. PDI values greater than 0.7 indicate that the sample has a very broad size distribution and is not suitable for the DLS technique. The calculations for these parameters are defined in the ISO standard document 13321:1996 E and ISO 22412:2008.
as §1, with “Size, zeta potential and polydispersity index (PDI) measurement: The hydrodynamic” for “The hydrodynamic”, “scattering (DLS) technique using the Zetasizer Advance Series—Pro (Malvern Panalytical Ltd, Malvern, UK) according to the manufacturer's instructions. DLS is” for “scattering (DLS) technique. DLS is”
The data obtained with DLS measurements can also be used to calculate the PDI of particle in solution. PDI is used to estimate the average uniformity of a particle solution. The method of cumulants is a standard technique for analysing DLS data on sample polydispersity. PDI is a number calculated from a 2 parameter fit to the correlation data (the cumulants analysis). The cumulants analysis is used to evaluate the autocorrelation function generated by a DLS experiment. The calculation is defined in ISO 13321 and ISO 22412. PDI values greater than 0.7 indicate that the sample has a very broad size distribution and is not suitable for the DLS technique. The calculations for these parameters are defined in the ISO standard document 13321:1996 E and ISO 22412:2008.
To measure the size and PDI, the samples were diluted 16× in 25 mM HEPES buffer (5 μl sample+75 μl buffer). Parameters: reference material: polystyrene latex, dispersant: water, 25° C. The PDI measurements were measured in nanoparticles comprising a dendrimer:nucleic acid NP ratio of 8:1.

lung and spleen = test: Luciferase mRNA expression in mouse tissues after intravenous administration (bioluminescence); type: in vivo, Balb/c mice; conditions: 6 hours, DOTMA/DOPE w/w=23:1 to mRNA, dendrimers NP=0.6:1, FIG. 11
Method: All animal procedures were conducted following the Animal Research Reporting of In Vivo Experiments and approved by the UK Home Office for the conduct of regulated procedures under license. For the data underlying FIG. 11, Balb/c mice aged 4 weeks were purchased from Jackon's Laboratory and left to acclimate in the new housing environment for 1-week upon their arrival. All mice were weighed and warmed for 15 min at 37 C in a heating chamber. The formulations were delivered intravenously (5 mL/kg) via the tail vein using 30 G insulin syringes (BD biosciences).
All mice were imaged 6 hours post injection. BLI was performed using an IVIS Lumina II (Perkin Elmer) imaging system. Mice were administered D-luciferin (GoldBio) at a dose of 10 uL/g. Mice were anaesthetised in a chamber with 2.5% isoflurane and then placed on a heated imaging platform while being maintained on 2.5% isoflurane. For the data underlying FIG. 11, mice were imaged 10 min post administration of D-luciferin with an exposure time set at 45 sec to ensure the signal acquired was within an effective detection range (binning medium). Bioluminescence signal was quantified by measuring photon flux (photons/s) using the Living Image software (Perkin Elmer). […] The organs were placed in the centre of imaging platform (Lumina II system) and signal was measured using the acquisition settings detailed above. […]

mouse macrophages = test: eGFP mRNA transfection of mouse macrophages with or without mannose-dendrimer coat; type: cell-based; conditions: GSCG1,2-RHL nanoparticle NP=8:1, DOTMA/DOPE:mRNA w/w 10:1, coat 1:1 (1 eq) coating:mRNA; FIG. 6
Method: J774.2 cells were subcultured in DMEM supplemented with 2 mM glutamax and 10% heat-inactivated FBS (complete media). Twice a week (at about 70-80% confluency; every 3-4 days), cells were scrapped and collected into Falcon tubes, and pelleted at 400 g for 5 minutes. The cells were resuspended in complete media, counted and seeded into 10 cm dishes at a density of 1.7-2.5E+4 cells/cm^2. For M2 polarisation, the cells were treated with complete media supplemented with 20 ng/ml recombinant murine IL-4 and 20 ng/ml recombinant murine IL-13 (activation media) over a 48 hr period. After 24 hrs in IL-4 and IL-13 containing medium, the cells scrapped and collected as described above. The cells were seeded into 24-well plates at a density of 1.2E+5 cells/well in 0.5mls/well complete media containing 20 ng/ml IL-4 and IL-13.
The media overlaying the polarised J774.2 cells was aspirated and exchanged with 480 ul/well activation media. 120 ul/well of each test condition (total volume was 600 ul/well) was added (test conditions were prepared in 25 mM HEPES solution). Control conditions were prepared consisting of neat 25 mM HEPES and an mRNA control. Between addition of each test condition the plate was shaken back and forth to ensure mixing. The plate was placed into the incubator overnight.
Staining and fixation for both human and mouse-derived macrophages was carried out as follows. After 24 hrs the media overlaying each test condition was transferred to corresponding 1.5 ml Eppendorf tubes (in order to conserve cells that may have died during transfection). Cells were then washed with 300 ul/well PBS which was transferred to the corresponding tubes. 500 ul/well 5 mM EDTA was added to each well and the plate(s) transferred to the 37° C. incubator for 5-10 minutes until the cells started to detach. Cells were then transferred from the plate to the corresponding 1.5 ml tubes. Cells were pelleted down at 300 g for 5 minutes and resuspended in 100 ul/sample fixable Live/Dead Aqua stain. ArC beads were stained with 3 ul neat Live/Dead Aqua for compensation. These cells were stained on ice for 30 minutes. Following this, the tubes were spun down at 300 g for 5 minutes. The supernatant was discarded, and the cells were resuspended in 500 ul/sample PBS. Negative ArC beads were added to the compensation control. GFP compensation beads were dispensed into separate tube as the GFP compensation control. The samples were spun down at 300 g for 5 minutes. Samples were then resuspended in 100 ul/sample of Reagent A from the Invitrogen Fix/Perm kit and left at room temperature for 15 minutes. The samples were spun down at 400 g for 5 minutes and the supernatant was disposed. The samples were once again washed with PBS and spun down at 300 g for 5 minutes. The cells were finally resuspended in 400 ul/sample FACS buffer (PBS+2 mM EDTA+0.5% w/v BSA) for flow analysis. Samples were stored in the fridge prior to flow analysis and run within 24 hrs of fixation.
12 μl of a nanoparticle formulation was aliquoted into a sterile 0.5 ml polypropylene tube. 4 μl of a 0.3 mg/ml, 0.6 mg/ml or 1.8 mg/ml solution of (Ac-EEEE)2[…][(S-S)-α-D-Thiomannose] (for a mRNA:coating mass ratio of 1:0.5, 1:1 or 1:3, respectively) was mixed by rapidly pipetting up and down 10-15 times, and allowed to incubate for 5 minutes.
Macrophages, and in particular M2-phenotype macrophages, are known to have enriched surface expression of the receptor CD206, the ligand for which is mannose.

myeloid cells in tumour = test: In vivo uptake of Alexafluor488 tagged mRNA by cells in tumour of MC38 bearing mice; design: species or system C57Bl/6 mice; conditions: GSCG1,2-RL, 3-LR N:P=0.16:1, DOTMA:DOPE 10:1, coat 3 eq; 2.25 mg/kg IV, 4 hours; FIG. 39
Description: Compensation was adjusted using the Attune compensation beads.

lung cells = conditions: GSCG1,2-RL, 3-LR N:P=0.16:1, DOTMA:DOPE 10:1, coat 3 eq; 2.25 mg/kg IV, 4 hours; FIG. 13
Method: Six week old, female C57Bl/6 mice were supplied from Envigo UK. The mice were acclimatized in the animal facility for at least 7 days prior to use. […] The mice were randomised into 4 groups of n=3 when the tumours reached 0.15 cm3 (calliper measurements) and were dosed IV at 2.25 mg/kg or 3 mg/kg.
Four hours post dosing of the formulations, the animals were culled, and tissues were harvested. Terminal blood was collected in EDTA tubes and treated with Red Blood Cell Lysing Buffer HYBRI-MAX (Merck) prior to antibody staining. Spleens were dissociated by pushing through a 70 uM cell strainer using a syringe plunge. The cell suspension was then treated with Red Blood Cell Lysing Buffer HYBRI-MAX (Merck) prior to antibody staining. Lung and tumour samples were cut into small pieces and were enzymatically digested using the Lung and Tumor Dissociation Kit (mouse) and the gentleMACS™ Octo Dissociator with Heaters (Miltenyi) following the manufacturer's instructions.
The final cell suspensions were blocked with mouse Fc block prior to antibody staining. Cells were incubated with the antibody master mix at 4 C for 20 min and then they were fixed using 4% PFA for 30 min RT. They were analysed using the Attune NxT flow cytometer (Thermo Fisher) within 24 hours of fixing and data was analysed using the FlowJo_v10.8.1 software. Compensation was adjusted using the Attune compensation beads.

Substance	Polydispersity Index (PDI) [1]	delivery of luciferase mRNA cargo to lung and spleen (bioluminescence) (lung and spleen)	increase of transfection efficiency compared to a non-coated nanoparticle (mouse macrophages) [%]	uptake by CD206+ M2 macrophage cells in tumour versus non-coated nanocarrier and LPX-mRNA (myeloid cells in tumour)	uptake by CD206+ cells in the lung versus non-coated nanocarrier and LPX-mRNA (lung cells)	uptake in the lung cells versus non-coated nanocarrier and LPX-mRNA (lung cells)
(LRLR)2KGSC-NH2 [GSCG1-LRLR]	0.581	further improved	–	–	–	–
(Ac-EEEE)2KGSGGSGGSC[(S-S)-α-D-Thiomannose] [Mannose-G1-EEEE]	–	–	~10	more effectively	more effectively	higher uptake in the lung cells
